This note sets out measurements from patent publication EP0196515A1, “Photodynamic inactivation of virus in therapeutic protein compositions” (BAXTER TRAVENOL LABORATORIES, INC., priority 1985, dated 1986).

One test concerns Sindbis. Briefly: microbe, parasite or virus in culture. Type of test: cell-based. As to conditions: read-out: logs of marker virus inactivated.
In test [1] the test system is Vesicular stomatitis virus. Kind of test: microbe, parasite or virus in culture. Type of test: cell-based. As to conditions: read-out: logs of marker virus inactivated.
The test system of a further test is Herpes Simplex virus. Kind of test: Photodynamic virus inactivation, plaque assay of virus infectivity. Type of test: cell-based. To be noted: AHF products; chlorpromazine 1 X 10^-4M; light for less than ten minutes; read-out: logs of marker virus inactivated.
Test [2] has as its system LAV reverse transcriptase. Kind of test: Photodynamic inactivation of LAV seeded into AHF, reverse transcriptase assay. It counts as biochemical. As to conditions: AHF seeded with LAV, Chlorpromazine 1 X 10^-4M, unfiltered Mercury Arc Lamp. How it is done: The following data supports photodynamic inactivation of LAV using indirect methods. AHF was seeded with LAV virus. In the first set of data, Protoporphyrin was added at a concentration of 5 X 10^-6M. The mixture was exposed to light ffrom a 65 watt Super Diazo Blue lamp at a distance of 10 cm. Albumin was added to the samples after inactivation to inhibit any inactivation from extraneous light. The product was lyophilized and subjected to a reverse transcriptase assay.
In the second set of data, LAV was seeded into an AHF composition. Chlorpromazine (1 X 10^-4M) was added as a photosensitize and the mixture was exposed to unfiltered light from an 85 watt high pressure mercury arc lamp at a distance of 10 cm. The product was lyophilized and analyzed for reverse transcriptase activity. Results are reported in counts per minute.

The next test deals with T1, Factor VIII (Homo sapiens, UniProt P00451).
T1 sequence (P00451 20-1332 limits assumed): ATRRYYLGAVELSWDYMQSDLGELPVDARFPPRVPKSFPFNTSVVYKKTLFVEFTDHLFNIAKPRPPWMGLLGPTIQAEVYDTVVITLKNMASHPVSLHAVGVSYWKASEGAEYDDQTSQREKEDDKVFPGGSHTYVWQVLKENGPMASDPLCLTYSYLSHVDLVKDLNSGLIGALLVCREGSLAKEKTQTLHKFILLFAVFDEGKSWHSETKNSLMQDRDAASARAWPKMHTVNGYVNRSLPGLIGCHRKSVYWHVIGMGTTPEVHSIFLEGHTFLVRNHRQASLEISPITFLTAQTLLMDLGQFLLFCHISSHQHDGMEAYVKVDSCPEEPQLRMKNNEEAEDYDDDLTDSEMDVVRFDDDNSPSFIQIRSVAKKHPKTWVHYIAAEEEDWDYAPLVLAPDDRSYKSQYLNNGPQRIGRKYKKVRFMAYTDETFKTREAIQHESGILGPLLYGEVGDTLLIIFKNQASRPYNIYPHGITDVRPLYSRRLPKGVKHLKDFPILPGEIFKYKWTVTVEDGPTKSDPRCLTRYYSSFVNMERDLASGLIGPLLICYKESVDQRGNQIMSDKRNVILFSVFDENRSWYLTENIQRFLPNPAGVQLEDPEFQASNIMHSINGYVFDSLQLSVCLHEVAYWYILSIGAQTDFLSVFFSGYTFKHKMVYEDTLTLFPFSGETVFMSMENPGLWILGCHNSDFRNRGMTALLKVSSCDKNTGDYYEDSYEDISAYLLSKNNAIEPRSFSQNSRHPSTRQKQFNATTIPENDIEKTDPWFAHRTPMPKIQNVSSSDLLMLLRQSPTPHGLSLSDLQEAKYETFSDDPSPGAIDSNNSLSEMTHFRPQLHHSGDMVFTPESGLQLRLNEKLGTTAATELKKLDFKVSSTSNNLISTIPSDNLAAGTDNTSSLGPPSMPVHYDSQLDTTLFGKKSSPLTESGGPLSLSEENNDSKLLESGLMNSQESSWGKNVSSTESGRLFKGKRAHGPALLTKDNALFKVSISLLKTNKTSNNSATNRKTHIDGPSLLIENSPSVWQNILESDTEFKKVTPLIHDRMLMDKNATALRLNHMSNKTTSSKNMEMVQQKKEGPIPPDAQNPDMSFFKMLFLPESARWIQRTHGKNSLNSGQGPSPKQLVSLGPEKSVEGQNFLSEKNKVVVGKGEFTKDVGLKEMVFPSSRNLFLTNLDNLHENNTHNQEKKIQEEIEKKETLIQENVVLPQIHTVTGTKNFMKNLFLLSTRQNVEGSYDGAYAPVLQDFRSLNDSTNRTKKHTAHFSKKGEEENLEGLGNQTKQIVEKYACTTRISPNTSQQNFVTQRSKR
T1 sequence (P00451 1668-2351 limits assumed): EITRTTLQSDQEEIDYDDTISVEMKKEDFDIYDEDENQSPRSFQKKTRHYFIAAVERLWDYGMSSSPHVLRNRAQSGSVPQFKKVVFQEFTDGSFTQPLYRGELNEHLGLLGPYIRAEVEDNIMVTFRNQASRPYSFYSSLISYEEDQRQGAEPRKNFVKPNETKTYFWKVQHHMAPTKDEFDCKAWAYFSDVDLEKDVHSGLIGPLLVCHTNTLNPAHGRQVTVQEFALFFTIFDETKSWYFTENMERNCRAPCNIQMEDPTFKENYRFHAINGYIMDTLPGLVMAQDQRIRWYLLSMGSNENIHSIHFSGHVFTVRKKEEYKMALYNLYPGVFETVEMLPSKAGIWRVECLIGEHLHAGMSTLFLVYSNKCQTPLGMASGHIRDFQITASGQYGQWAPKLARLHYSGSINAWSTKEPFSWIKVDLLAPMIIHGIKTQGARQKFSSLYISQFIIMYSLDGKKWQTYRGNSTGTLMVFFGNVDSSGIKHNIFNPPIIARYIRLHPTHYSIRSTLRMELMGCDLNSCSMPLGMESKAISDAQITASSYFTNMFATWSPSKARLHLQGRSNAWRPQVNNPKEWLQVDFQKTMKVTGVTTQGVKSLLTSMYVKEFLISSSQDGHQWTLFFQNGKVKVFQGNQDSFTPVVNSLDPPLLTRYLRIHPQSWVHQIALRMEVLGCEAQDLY
Kind of test: Factor VIII C activity, one-stage activated partial thromboplastin time assay (AHF product after photosensitizer and light).

The mark [3] stands for this setting: Chlorpromazine 1x10^-4M, Mercury Arc Lamp, Sensitizer added-10 min light.
Setting [4] is: Chlorpromazine 1x10^-5M, Mercury Arc Lamp, Sensitizer added-10 min light.
The mark [5] stands for this setting: Chlorpromazine 1x10^-5M, Mercury Arc Lamp, Sensitizer added-20 min light.

Each structure is given as a SMILES string. Some results are limits rather than exact numbers.

From the text for Factor VIII: The mixture was then exposed to light of a defined wavelength for a specified period of time.
Several light sources were used. A U.V. light source derived from a high pressure mercury vapor quartz lamp (85 watts) was employed. This source provided a wide band of light in the 390 to 410 nm range. A filter was used to remove the radiation below 350 nm in wave length. Alternatively a super diazo blue fluorescent lamp was used which has a peak emission near the absorption peak of the porphyrins employed.
Factor VIII C and Factor IX activity was determined by the one-stage activated partial thromboplastin time assay using Kaolin as an activator and human Factor VIII or Factor IX deficient plasma as a substrate. […] It involves the addition of the test sample to Factor VIII or Factor IX deficient plasma and measuring the degree of correction of the clotting time. This is then compared to a curve constructed using various dilutions of a lyophilized concentrate (reference) of known potency. […] Both sample and refernce are prediluted in Factor VIII deficient substrate plasma to an approximate activity of 1 U/mL. From the percentage of the reference, the potency can be estimated.

As for `CN(C)CCCN1c2ccccc2Sc2ccc(Cl)cc21` [Chlorpromazine, 10-(3-dimethyl-aminopropyl)-2-chlorphenothiazine], the log reduction at 100 µM (in the test on Sindbis; in test [1]; in the test on Herpes Simplex virus) was > 5 throughout. The “C.P.M. (reverse transcriptase activity)” value in test [2] (exposure 0 minutes) is on record as 36,192 C.P.M; in test [2] (exposure 5 minutes) it was 27,100 C.P.M; in test [2] (exposure 10 minutes) it was 6,814 C.P.M; in test [2] (exposure 20 minutes), 4,742 C.P.M. Moreover, the “% Change (Ref: Bulk), Percent change in Factor VIII coagulant activity” value is -29% at Factor VIII (setting [3]), -23% at Factor VIII (setting [4]) and -43% at Factor VIII (setting [5]). Further, the Units/ml at Factor VIII (setting [3]) was determined as 20.0 Units/ml; at Factor VIII (Chlorpromazine 1x10^-4M, Sensitizer added-no light), 27.3 Units/ml; at Factor VIII (setting [4]) it was 24.8 Units/ml; at Factor VIII (setting [5]) it was 18.2 Units/ml; on Factor VIII (Chlorpromazine 1x10^-5M, Sensitizer added-no light), 30.1 Units/ml.
